According to article PMC12189828, “Substitution of Proline Residues by 4-Fluoro-L-Proline Affects the Mechanism of the Proline-Rich Antimicrobial Peptide Api137” (Antibiotics, 2025):
Where a SMILES comes first, the peptide text is derived from it. [ ]: non-standard residue; d: D form. The star is where a group is joined. Orn(α-tetramethylguanidino) = CN(C)C(=N[C@@H](CCCN)C(=O)*)N(C)C; Pro(trans-4-F) = O=C(O)[C@@H]1C[C@@H](F)CN1

Assays:
[1] = target: 70S ribosome isolated from E. coli BW25113 (E. coli (endogenous in E. coli BW25113)); assay: fluorescence polarisation; competition: 2-fold dilution series (21 steps) of unlabeled peptide (20 uL, 300 umol/L) pre-incubated 90 min with crude 70S ribosome extract (at ~90% of the upper Kd plateau), then cf-Api137 (10 uL, 80 nmol/L) for 90 min; ribosome preparation buffer, 28 +/- 1 C; Ki calculated from IC50
[2] = target: 70S ribosome isolated from E. coli BW25113 (E. coli (endogenous in E. coli BW25113)); assay: fluorescence polarisation; direct titration: 2-fold dilution series (22 steps) of crude 70S ribosome extract, cf-labeled peptide (10 uL, 40 nmol/L) added; ribosome preparation buffer (20 mmol/L HEPES-KOH, 6 mmol/L MgCl2, 30 mmol/L NH4Cl, pH 7.6); 28 +/- 1 C, 90 min
[3] = target: 70S ribosomes isolated from E. coli BW25113 (Escherichia coli, UniProt P60723+P61175); assay: Fluorescence polarization, competition with cf-Api137 for 70S ribosome binding (Ki); details: ratio of Ki to the Ki of Api137
Method: E. coli BW25113 were cultivated in LB medium and harvested by centrifugation (5000× g, 15 min, 4 °C) at an OD600 of 3–4. Cell pellets were washed in ribosome preparation buffer (20 mmol/L HEPES-KOH, 6 mmol/L MgCl2, 30 mmol/L NH4Cl, pH 7.6, 4 °C), centrifuged (4100× g, 30 min, 4 °C), and resuspended in ribosome preparation buffer (0.5 g/L) containing freshly added 2-mercaptoethanol (4 mmol/L) and lysozyme. Cells were incubated on ice for 30 min and disrupted in six cycles using a FastPrep-24^TM 5G instrument (MP Biomedicals, Eschwege, Germany) with the BigPrep 50 mL setting (40 s, 4.0 m/s), interrupted by one minute of incubation on ice between the cycles. After a centrifugation step (1620× g, 5 min, 4 °C), DNase I (5 U/mL) was added to the supernatant and incubated for 1 h on ice. Cell debris was removed by centrifugation at 16,000× g (30 min, 4 °C) and twice at 32,000× g (60 min, 4 °C). Crude ribosomes were obtained by centrifugation at 165,000× g (17 h, 4 °C). […]
Inhibition constants (Ki) were measured for the 70S ribosome extract using cf-labeled and unlabeled peptides in ribosome preparation buffer. […] Fluorescence polarization was determined on a PARADIGM^TM microplate reader in the top reading position (λex = 485 nm, λem = 535 nm). […] Ki values were calculated as described by Mathias and Jung.

[4] = test system: in vitro expression of sfGFP in the presence of RF1; assay: In vitro transcription-translation (iTT) assay of sfGFP in the presence of RF1; type: biochemical; details: peptide 5 µmol/L, RF1, 37 °C, 2 h, fluorescence; normalized to absence of PrAMPs; n = 3
Method: The sfGFP expression analysis relied on the NEB PureExpress Delta RF123 Kit (New England Biolabs, Frankfurt, Germany). The DNA template encoding sfGFP with a UAG stop codon was amplified from the pY71sfGFP vector by PCR using the primers sfGFP fwd ([…]) and sfGFP rev ([…]). The release factor RF1 of the kit was diluted 50-fold (v/v) in 1× Pure System Buffer (PSB, 1 mol/L magnesium acetate, 0.5 mol/L K3PO4 (pH 7.3), 1 mol/L potassium glutamate, 1 mol/L NH4Cl, 0.5 mol/L CaCl2, 1 mol/L spermidine, 0.1 mol/L putrescine, 0.1 mol/L DTT). sfGFP expression was performed in a freshly prepared mixture of kit solution A (2 µL), kit solution B (1.5 µL), 50-fold diluted RF1 (0.5 µL), sfGFP template (0.1325 pmol, 35 ng) or water as control (0.25 µL), PSB (0.25 µL), and a PrAMP (50 or 0 µmol/L) dissolved in water (0.5 µL). The reaction mixture was transferred to a black 384-well plate (flat bottom, PS, 784900, Greiner Bio-One GmbH), covered with a lid, and incubated (37 °C, 2 h) in a microplate reader (Gemini EM, Molecular Devices, San Jose, CA, USA). Fluorescence was recorded every 10 min (λex = 485 nm, λem = 535 nm).

[5] = test system: 50S subunit assembly / 70S ribosome in E. coli RN31; assay: Ribosome profile analysis (RPA), sucrose gradient of E. coli RN31 lysate; type: cell-based, Escherichia coli; details: E. coli RN31, 33% TSB, peptide 8 µg/mL, 90 min, 5–25% sucrose gradient; n = 2 (Api137 n = 7)
Method: E. coli RN31 was grown in 33% TSB (37 °C, 200 rpm) from a starting OD600 of 0.05 to an OD600 of 0.2, measured on a NanoPhotometer® (NP80; Implen; Westlake Village, CA, USA), and divided into subcultures that were inoculated with a peptide ([…]) before being cultured for 90 min (37 °C, 200 rpm). The following steps were performed on ice. Cells were harvested by centrifugation (4000× g, 4 °C, 25 min), washed with TICO buffer (20 mmol/L Hepes-KOH, pH 7.6, 6 mmol/L MgAc2, 30 mmol/L KAc), centrifuged (4000× g, 25 min, 4 °C), and stored at −80 °C. The cell pellet was suspended in TICO buffer (500 µL) and mixed with silica beads (zirconium glass pellets, 100 µm diameter; Carl Roth; Karlsruhe, Germany) to lyse the cells on a FastPrep-24^TM 5G (MP Biomedicals, Solon, OH, USA) using three disruption cycles (30 s, 6.0 m/s) interrupted by 1 min of incubation on ice after each cycle. Cell debris was removed by centrifugation (5000× g, 4 °C, 5 min), the supernatant was transferred to a new reaction tube, centrifuged (20,000× g, 4 °C, 20 min), the absorbance was recorded at 260 nm on a NanoPhotometer® NP80, and the sample was stored at −80 °C.
A 5% (w/v) sucrose solution (6.5 mL) in TICO buffer containing 2-mercaptoethanol (4 mmol/L) was poured into an open-top centrifuge tube (13.2 mL, 14 × 89 mm, Beckman Coulter) and bottomed with a 25% (w/v) sucrose solution (6.5 mL) in TICO buffer containing 2-mercaptoethanol (4 mmol/L) using a cannula. The tube was sealed with parafilm and placed horizontally at 4 °C for 3 h and vertically at 4 °C for 30 min. A portion of the upper layer (550 µL) was replaced by lysate (500 µL, A260 = 30) and centrifuged using a swing-out rotor (SW 41 Ti, 52,500× g, 4 °C, 19 h) without a brake. The contents were transferred from bottom-up to obtain equal volumes in all wells of a black 96-well plate with a flat bottom (96 Well PP black Greiner Bio-One GmbH, Frickenhausen, Germany) using the Äkta Purifier 10 system, and absorbance was recorded at a wavelength of 254 nm. Fluorescence was measured in the plate using the PARADIGM at excitation (λex) and emission (λem) wavelengths of 485 nm and 535 nm for eGFP and 585 nm and 635 nm, respectively, for mCherry and normalized to the 70S ribosome peak (set to 100%).

[6] = test system: E. coli RN31; assay: Growth inhibition of E. coli RN31 during 90 min exponential growth phase; type: cell-based, Escherichia coli; details: E. coli RN31, 33% TSB, peptide 8 µg/mL, 90 min, OD600; two biological replicates (n = 2)
Method: The following steps were performed on ice. Cells were harvested by centrifugation (4000× g, 4 °C, 25 min), washed with TICO buffer (20 mmol/L Hepes-KOH, pH 7.6, 6 mmol/L MgAc2, 30 mmol/L KAc), centrifuged (4000× g, 25 min, 4 °C), and stored at −80 °C. The cell pellet was suspended in TICO buffer (500 µL) and mixed with silica beads (zirconium glass pellets, 100 µm diameter; Carl Roth; Karlsruhe, Germany) to lyse the cells on a FastPrep-24^TM 5G (MP Biomedicals, Solon, OH, USA) using three disruption cycles (30 s, 6.0 m/s) interrupted by 1 min of incubation on ice after each cycle. Cell debris was removed by centrifugation (5000× g, 4 °C, 5 min), the supernatant was transferred to a new reaction tube, centrifuged (20,000× g, 4 °C, 20 min), the absorbance was recorded at 260 nm on a NanoPhotometer® NP80, and the sample was stored at −80 °C. […]

Compound Api137 (peptide) has a Ki [1] of 2.6 nM.

Compound “5(6)-carboxyfluorescein-labeled Api137 (peptide)” has a Kd [2] of 244 nM.

In the case of CC[C@H](C)[C@H](NC(=O)[C@H](Cc1ccc(O)cc1)NC(=O)[C@@H](NC(=O)[C@@H]1CCCN1C(=O)[C@H](CCCNC(=N)N)NC(=O)[C@H](CC(N)=O)NC(=O)[C@H](CC(N)=O)NC(=O)[C@H](CCCN)N=C(N(C)C)N(C)C)C(C)C)C(=O)N1CCC[C@H]1C(=O)N[C@@H](CCCNC(=N)N)C(=O)N1CCC[C@H]1C(=O)N[C@@H](CCCNC(=N)N)C(=O)N1C[C@H](F)C[C@H]1C(=O)N1CCC[C@H]1C(=O)N[C@@H](Cc1c[nH]cn1)C(=O)N1CCC[C@H]1C(=O)N[C@@H](CCCNC(=N)N)C(=O)N[C@@H](CC(C)C)C(=O)O [Api844] ({Orn(α-tetramethylguanidino)}-NNRPVYIPRPR[Pro(trans-4-F)]PHPRL-OH), the “fold higher Ki than Api137” value [3] is reported as 8 fold, the “Residual iTT (sfGFP expression relative to no PrAMP)” value [4] is reported as 28 ± 1.2% and the “RPA [pre-50S formation]” value [5] is reported as “yes”. The “reduction of bacterial growth vs untreated control” value [6] was 70%.
